Source: patent US20100249408A1, “USE OF NOVEL COMPOUND HAVING AFFINITY FOR AMYLOID, AND PROCESS FOR PRODUCTION OF THE SAME” (NIHON MEDI-PHYSICS CO., LTD., priority 2007, published 2010)

What was measured:
[1] = biological target: T1, amyloid (aggregated Aβ1-40) (Homo sapiens, UniProt P05067); assay: Measurement of amyloid affinity: in vitro binding test, inhibition of [125I]3′-I-BTA-0 binding
T1 construct: Aβ1-40 (Peptide Institute) was dissolved in phosphate buffer (pH 7.4); purchased Peptide Institute
Description: Affinity of the present compounds with amyloid was examined by the following in vitro binding tests.
(1) Aβ1-40 (Peptide Institute) was dissolved in phosphate buffer (pH 7.4) and shaken at 37° C. for 62-72 hours, to obtain a suspension of aggregated Aβ (concentration: 1 mg/mL equivalent, hereinafter referred to as amyloid suspension in these Examples).
(3) According to the method described in a literature (Wang, Y., et al., J. Labeled Compounds Radiopharmaceut. 44, 5239 (2001)), [^125I]2-(3′-iodo-4′-aminophenyl)benzothiazole (hereinafter referred to as [^125I]3′-I-BTA-0) was prepared from a labeling precursor 2-(4′-aminophenyl)benzothiazole, and dissolved in ethanol. [^125I]sodium iodide of 12-71 MBq (10-30 μL in volume) was used for the production, to obtain [^125I]3′-I-BTA-0 of 1-22 MBq immediately after the synthesis.
(5) Samples in which [^125I]3′-I-BTA-0, each compound for evaluation and amyloid were dissolved in a 0.1% bovine serum albumin-containing phosphate buffer (pH 7.4) at final concentrations shown in Table 2 were prepared. The resulting samples were placed in each well (about 0.3 mL in volume) of a 96-well microplate.
(6) The microplate filled with the sample solutions was shaken at a given rate (400 rpm) at 22° C. for 3 hours. Then, each sample solution was filtered through a glass fiber filter (trade name: Mulutiscreen™-FC, manufactured by Millipore), to separate the [^125I3′-I-BTA-0 attached to amyloid from the [^125I]3′-I-BTA-0 free from amyloid.
(7) The glass fiber filter used for the filtration of each sample solution was washed with a 0.1% bovine serum albumin-containing phosphate buffer (pH 7.4) (0.5 mL×5), and radioactivity of the glass fiber filter was measured with an autowell gamma system (manufactured by Aloka, Type: ARC-301B).
(8) Separately, a solution containing 15 μmol/L of 6-Me-BTA-2, 400 pmol/L of [^125I]3′-I-BTA-0 and 1 μmol/L of Aβ1-40 in a 0.1% bovine serum albumin-containing phosphate buffer (pH 7.4) was prepared and subjected to the same procedures as described above in (6) and (7) to measure a radioactivity level. The measured radioactivity level was defined as the background radioactivity level, and used in the calculation of the inhibition ratio (hereinafter referred to as BG).
(9) Using the radioactivity levels measured above in (7) and (8), the inhibition ratio was determined by the following formula (1).
A graph in which values converted by probit transformation from the obtained inhibition ratios were plotted relative to logarithms of concentrations of compounds for evaluation was prepared to obtain an approximate straight line by the least square method. Using the line, the concentration of each compound for evaluation was determined, at which the radioactivity level is half of the level of the sample free from each compound for evaluation, and was defined as a 50% inhibition concentration of each compound (hereinafter referred to as IC50% value). Using the value as an indicator, affinity of each compound for evaluation with amyloid (aggregated Aβ1-40) was evaluated.

[2] = tested on: Salmonella typhimurium TA98; assay: Reverse mutation test (Ames test), TA98; format: cell-based; conditions: maximum 5000 μg/plate
Description: (§1) In order to examine gene mutagenicity of Compounds 1, 2 and 4, reverse mutation test using Salmonella typhimurium TA98 and TA100 (hereinafter referred to as Ames test) was conducted.
(§2) The test was conducted without addition of S9mix and with addition of S9mix. Dimethylsulfoxide was used as a negative control. A positive control was 2-(2-furyl)-3-(5-nitro-2-furyl)acrylamide in case S9mix was not added, and 2-aminoanthracene in case S9 mix was added.
(§3) The amount of each sample to be added to the test plate was 7 dosages (geometric ratio 4) with the maximum dose being 5000 μg/plate. After a sample to be examined and a strain (TA98 or TA100), or a sample to be examined, S9mix and the strain were mixed together, the mixture was multilayered using soft agar on a medium of a test plate, and then incubated at 37° C. for 48 hours.
(§4) In order to examine gene mutagenicity of Compound 8, reverse mutation test using Salmonella typhimurium TA98 and TA100 (hereinafter referred to as Ames test) was conducted.
(§5) The test was conducted without addition of S9mix and with addition of S9mix. Dimethylsulfoxide was used as a negative control. A positive control was 2-(2-furyl)-3-(5-nitro-2-furyl)acrylamide in case S9mix was not added, and 2-aminoanthracene in case S9mix was added.
as §3, with “Compound 8” for “each sample”, “3)” for “4)”, “Compound 8” for “a sample to be examined”, “Compound 8,” for “a sample to be examined,”

[3] = tested on: Salmonella typhimurium TA100; assay: Reverse mutation test (Ames test), TA100; format: cell-based; conditions: maximum 5000 μg/plate
Description: as §1, §2, §3, §4, §5
as §3, with “Compound 8” for “each sample”, “3)” for “4)”, “Compound 8” for “a sample to be examined”, “Compound 8,” for “a sample to be examined,”

[4] = biological target: T2, amyloid (amylin) (Homo sapiens, UniProt P10997); assay: Inhibition of binding of Thioflavin T to amyloid derived from amylin; conditions: Thioflavin T 5 μmol/L, amyloid 2.6 μmol/L
T2 construct: Amylin (human) (manufactured by Wako) was dissolved in phosphate buffer (pH 7.4); purchased Wako
T2 sequence (P10997 34-70 limits assumed): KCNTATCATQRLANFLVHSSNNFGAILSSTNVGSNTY
Description: Amylin is an amyloid accumulating in pancreas of type II diabetes.
(3) The amyloid suspension was dissolved in 50 mM phosphate buffer (pH 7.4) at a concentration of amylin of 15 μM.
(4) Samples in which each compound for evaluation and amyloid were dissolved in a 50 mM phosphate buffer (pH 7.4) at final concentrations shown in Table 9 were prepared.
(5) A sample in which 100 μL of 50 mM phosphate buffer (pH 7.4) and 50 μL of 50 mM glycin-NaOH buffer (pH 8.5) were mixed was made as a blank, and subjected to the same procedure as in (4) and used for a calculation of inhibition ratio (hereinafter referred to as BG).
(6) The microplate filled with the sample solutions was left to stand at room temperature for 30 hours. Then, fluorescence strength of each sample solution was measured (measurement conditions: excitation wavelength of 446nm, emission wavelength of 490 nm) with microplate reader (type: SPECTRA MAX GEMINI XS, manufactured by Molecular Devices) (hereinafter, A denotes the fluorescence strength in a sample with zero (0) concentration of each compound for evaluation, and B denotes the fluorescence strength in a sample with 1.5 μmol/L or higher concentration of each compound for evaluation).
(7) Using the fluorescence strength measured above in (6), the following formula (5): […]
was used to determine the inhibition ratio.

[5] = tested on: Salmonella typhimurium TA98 and TA100; assay: Reverse mutation test (Ames test), overall judgment; format: cell-based; conditions: TA98 and TA100, with and without S9mix
Description: as §1, §2, §3, §4, §5
as §3, with “Compound 8” for “each sample”, “3)” for “4)”, “Compound 8” for “a sample to be examined”, “Compound 8,” for “a sample to be examined,”

[6] = Partition coefficient based on the octanol extraction method (logPoctanol); conditions: octanol / 10 mmol/L phosphate buffer (pH 7.4), radioactivity count
Description: 10 μL each of the prepared sample solution was respectively added to 2 mL of octanol, further, 2 mL of 10 mmol/L phosphate buffer (pH 7.4) was added, and stirred for 30 seconds. […] Using the obtained radioactivity count, log Poctanol was calculated in accordance with the equation (2).

[7] = Transferability into brain and clearance (Example I-16, Comparative Example I-7); format: in vivo, male Wistar rats; conditions: rats, intravenous injection, two animals
Description: Using Compound 6, a time course change of radioactive accumulation in brain of male Wistar rats (7-week old) was measured.
Also, radioactivity (hereinafter referred to as B in this Example) of 0.05 mL of a 1000-fold diluted solution of the injected solution was measured in the same manner as above. Using these measurement results, radioactive accumulation per unit weight of brain (% ID/g) at the respective time points was calculated in accordance with the following formula (3).

[8] = Transferability into brain and clearance (Examples II-11, II-12, Comparative Example II-1); conditions: rats, intravenous injection, three animals
Description: Using the Compounds 10 and 11, a time course change of radioactive accumulation in brain of male Wistar rats (7-week old) was measured.
The rats were sacrificed by bleeding from abdominal artery, and brains were removed and subjected to measurement of mass of brains and further subjected to measurement of radioactivity (hereinafter referred to as A in this Example) with a single channel analyzer (detector type: SP-20 manufactured by OHYO KOKEN KOGYO Co., Ltd.) 2, 5, 30 and 60 minutes after the injection. Also, radioactivity (hereinafter referred to as B in this Example) of the rest of the whole body was measured in the same manner as above. Using these measurement results, radioactive accumulation per unit weight of brain (% ID/g) at the respective time points were calculated in accordance with the following formula (4).
Three animals were used for experiment at the respective time points.

[9] = Table 6, 7 dosages (geometric ratio 4)
[10] = up to 5000 μg/plate (geometric ratio 4)
[11] = Table 8, 7 dosages (geometric ratio 3)

T1 sequence (P05067 672-711 limits assumed): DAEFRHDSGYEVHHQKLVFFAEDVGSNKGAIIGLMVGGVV

Nc1ccc(-c2nc3ccccc3s2)cc1I [3′-I-BTA-0, 2-(3′-Iodo-4′-aminophenyl)benzothiazole, reference compound]
IC50 [1]: 10.1 nM

Oc1ccc(-c2cn3cc(Br)ccc3n2)cc1 [Compound 1, 6-bromo-2-(4′-hydroxyphenyl)imidazo[1,2-a]pyridine]
Mutagenicity, TA98, with addition of S9mix [2, 9]: Negative
Mutagenicity, TA98, without addition of S9mix [2, 9]: Negative
Mutagenicity, TA100, with addition of S9mix [3, 9]: Negative
Mutagenicity, TA100, without addition of S9mix [3, 9]: Negative
Inhibition ratio (%) of binding of amyloid (amylin) to Thioflavin T ([4]; compound 1.5 μmol/L): 8.7%
Inhibition ratio (%) of binding of amyloid (amylin) to Thioflavin T ([4]; compound 15 μmol/L): 41.3%
Inhibition ratio (%) of binding of amyloid (amylin) to Thioflavin T ([4]; compound 30 μmol/L): 27.0%
Judgment in the Ames test (gene mutagenicity) [5, 10]: negative
IC50 [1]: 4.4 nM

Oc1ccc(-c2cn3cc(I)ccc3n2)cc1 [Compound 2, 2-(4′-hydroxyphenyl)-6-iodoimidazo[1,2-a]pyridine]
Mutagenicity, TA98, with addition of S9mix [2, 9]: Negative
Mutagenicity, TA98, without addition of S9mix [2, 9]: Negative
Mutagenicity, TA100, with addition of S9mix [3, 9]: Negative
Mutagenicity, TA100, without addition of S9mix [3, 9]: Negative
Inhibition ratio (%) of binding of amyloid (amylin) to Thioflavin T ([4]; compound 1.5 μmol/L): 11.2%
Inhibition ratio (%) of binding of amyloid (amylin) to Thioflavin T ([4]; compound 15 μmol/L): 16.3%
Inhibition ratio (%) of binding of amyloid (amylin) to Thioflavin T ([4]; compound 30 μmol/L): 32.0%
Judgment in the Ames test (gene mutagenicity) [5, 10]: negative
IC50 [1]: 46 nM

Oc1ccc(-c2cn3cc(OCCCF)ccc3n2)cc1 [Compound 3, 6-(3′-fluoropropoxy)-2-(4′-hydroxyphenyl)imidazo[1,2-a]pyridine]
IC50 [1]: 54.4 nM

Oc1ccc(-c2cn3cc(I)cnc3n2)cc1 [Compound 4, 2-(4′-hydroxyphenyl)-6-iodoimidazo[1,2-a]pyrimidine]
Mutagenicity, TA98, with addition of S9mix [2, 9]: Negative
Mutagenicity, TA98, without addition of S9mix [2, 9]: Negative
Mutagenicity, TA100, with addition of S9mix [3, 9]: Negative
Mutagenicity, TA100, without addition of S9mix [3, 9]: Negative
Judgment in the Ames test (gene mutagenicity) [5, 10]: negative
IC50 [1]: 54.1 nM

Oc1ccc(-c2cn3cc([125I])ccc3n2)cc1 [Compound 5, [^125I]-2-(4′-hydroxyphenyl)-6-iodoimidazo[1,2-a]pyridine]
logPoctanol value [6]: 1.6

Cc1ccc2nc(-c3ccc(N(C)C)cc3)sc2c1 [Compound 6-Me-BTA-2, 6-methyl-2-[4′-(N,N-dimethylamino)phenyl]benzothiazole, reference compound]
IC50 [1]: 25.4 nM

Oc1ccc(-c2cn3cc(I)ncc3n2)cc1 [Compound 8, 2-(4′-hydroxyphenyl)-6-iodoimidazo[1,2-a]pyrazine]
Mutagenicity, TA98, with addition of S9mix [2, 11]: Negative
Mutagenicity, TA98, without addition of S9mix [2, 11]: Negative
Mutagenicity, TA100, with addition of S9mix [3, 11]: Negative
Mutagenicity, TA100, without addition of S9mix [3, 11]: Negative
Judgment in the Ames test (gene mutagenicity) ([5]; up to 5000 μg/plate (geometric ratio 3)): negative

Oc1ccc(-c2cn3cc([123I])cnc3n2)cc1 [Compound 9, [^123I]-2-(4′-hydroxyphenyl)-6-iodoimidazo[1,2-a]pyrimidine]
logPoctanol value [6]: 1.7

Nc1c(/N=N/c2ccc(-c3ccc(/N=N/c4cc(S(=O)(=O)O)c5ccccc5c4N)cc3)cc2)cc(S(=O)(=O)O)c2ccccc12 [Congo-Red, reference compound]
IC50 [1]: > 1000 nM

CN(C)c1ccc(-c2cn3cc([125I])ccc3n2)cc1 [[^125I]-IMPY, reference compound]
logPoctanol value [6]: 2.1

CN(C)c1ccc(-c2cn3cc([123I])ccc3n2)cc1 [^123I-IMPY, reference compound]
Radioactive accumulation in brain per unit weight ([7]; after 2 min.): 1.02 % ID/g
Radioactive accumulation in brain per unit weight ([7]; after 5 min.): 0.99 % ID/g
Radioactive accumulation in brain per unit weight ([7]; after 30 min.): 0.20 % ID/g
Radioactive accumulation in brain per unit weight ([7]; after 60 min.): 0.08 % ID/g
Radioactive accumulation in brain per unit weight ([8]; after 2 min.): 1.19 % ID/g
Radioactive accumulation in brain per unit weight ([8]; after 5 min.): 0.97 % ID/g
Radioactive accumulation in brain per unit weight ([8]; after 30 min.): 0.23 % ID/g
Radioactive accumulation in brain per unit weight ([8]; after 60 min.): 0.09 % ID/g
